Laboratory results as given in PubChem BioAssay AID256 (DTP/NCI, 2004).
Toxic doses and inconclusive results are not listed. How the source made its calls: active means survival T/C of 150% or more; inactive means T/C below 125% in these data.

Test system: CD2F1 mice, L1210 leukemia ip, survival T/C
Assay: NCI In Vivo Anticancer Drug Screen. Data for tumor model L1210 Leukemia (intraperitoneal) in CD2F1 (CDF1) mice
Conditions: higher = longer survival
In short: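 Vehicle-treated tumor-bearing mice served as controls (C) for compound-treated mice (T). Reported figure is T divided by C.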

[1] = endpoint: mean survival time, dose: 100.0 mg/kg/injection, schedule: Q04DX002 (ip), vehicle: saline with Tween-80
[2] = endpoint: mean survival time, dose: 200.0 mg/kg/injection, schedule: Q04DX002 (ip), vehicle: saline with Tween-80
[3] = endpoint: mean survival time, dose: 400.0 mg/kg/injection, schedule: Q04DX002 (ip), vehicle: saline with Tween-80
[4] = endpoint: mean survival time, dose: 100.0 mg/kg/injection, schedule: Q01DX001 (ip), vehicle: saline with Tween-80
[5] = endpoint: mean survival time, dose: 200.0 mg/kg/injection, schedule: Q01DX001 (ip), vehicle: saline with Tween-80
[6] = endpoint: mean survival time, dose: 400.0 mg/kg/injection, schedule: Q01DX001 (ip), vehicle: saline with Tween-80
[7] = endpoint: mean survival time, dose: 100.0 mg/kg/injection, schedule: Q01DX009 (ip), vehicle: saline with Tween-80
[8] = endpoint: mean survival time, dose: 100.0 mg/kg/injection, schedule: Q01DX009 (ip), vehicle: saline
[9] = endpoint: mean survival time, dose: 200.0 mg/kg/injection, schedule: Q01DX009 (ip), vehicle: saline
[10] = endpoint: mean survival time, dose: 400.0 mg/kg/injection, schedule: Q01DX009 (ip), vehicle: saline
[11] = endpoint: mean survival time, dose: 100.0 mg/kg/injection, schedule: Q04DX003 (ip), vehicle: saline
[12] = endpoint: mean survival time, dose: 200.0 mg/kg/injection, schedule: Q04DX003 (ip), vehicle: saline
[13] = endpoint: mean survival time, dose: 100.0 mg/kg/injection, schedule: Q04DX003 (ip), vehicle: saline with Tween-80

Measured: T/C

CN(C)C(=O)c1cccc(COc2ccc(N3C(N)=NC(N)=NC3(C)C)cc2Cl)c1
inactive: endpoint: mean survival time, dose: 0.2 mg/kg/injection, schedule: Q01DX009 (ip), vehicle: saline 100 % of control | endpoint: mean survival time, dose: 0.4 mg/kg/injection, schedule: Q01DX009 (ip), vehicle: saline 98 % of control | endpoint: mean survival time, dose: 1.56 mg/kg/injection, schedule: Q01DX009 (ip), vehicle: saline 98 % of control | endpoint: mean survival time, dose: 3.13 mg/kg/injection, schedule: Q01DX009 (ip), vehicle: saline 100 % of control | endpoint: mean survival time, dose: 6.25 mg/kg/injection, schedule: Q01DX009 (ip), vehicle: saline 98 % of control | endpoint: mean survival time, dose: 12.5 mg/kg/injection, schedule: Q01DX009 (ip), vehicle: saline 98 % of control | endpoint: mean survival time, dose: 65.0 mg/kg/injection, schedule: Q01DX009 (ip), vehicle: saline 97 % of control

Cc1cc(SC(=O)N(C)C)c(S(=O)(=O)F)cc1Cl
inactive: [1] 87 % of control | [2] 87 % of control | [3] 93 % of control

CCN(CC)CCNc1cc2c3ccccc3ccc2c2ccccc12
inactive: [4] 88 % of control | [5] 95 % of control | [6] 100 % of control

O=S(=O)(Nc1cc(Cl)c(NS(=O)(=O)c2ccccc2)cc1Cl)c1ccccc1
inactive: [4] 96 % of control | [5] 88 % of control | [6] 93 % of control

c1ccc2c(c1)nnc1ccccc12
inactive: [7] 100 % of control | endpoint: mean survival time, dose: 200.0 mg/kg/injection, schedule: Q01DX009 (ip), vehicle: saline with Tween-80 110 % of control | endpoint: mean survival time, dose: 400.0 mg/kg/injection, schedule: Q01DX009 (ip), vehicle: saline with Tween-80 110 % of control

Nc1nc(N)c2cc(CCc3ccc(C(=O)NC(CCC(=O)O)C(=O)O)cc3)ccc2n1 (stereo unspecified)
inactive: endpoint: mean survival time, dose: 0.31 mg/kg/injection, schedule: Q01DX009 (ip), vehicle: Klucel (hydroxypropylcellulose) (HPC) 119 % of control

NP(=O)(Oc1cccc2c(OP(N)(=O)N(CCCl)CCCl)cccc12)N(CCCl)CCCl (stereo unspecified)
inactive: endpoint: mean survival time, dose: 31.25 mg/kg/injection, schedule: Q01DX001 (ip), vehicle: distilled water + Tween-80 95 % of control | endpoint: mean survival time, dose: 62.5 mg/kg/injection, schedule: Q01DX001 (ip), vehicle: distilled water + Tween-80 95 % of control | endpoint: mean survival time, dose: 125.0 mg/kg/injection, schedule: Q01DX001 (ip), vehicle: distilled water + Tween-80 95 % of control | endpoint: mean survival time, dose: 250.0 mg/kg/injection, schedule: Q01DX001 (ip), vehicle: distilled water + Tween-80 97 % of control | endpoint: mean survival time, dose: 500.0 mg/kg/injection, schedule: Q01DX001 (ip), vehicle: distilled water + Tween-80 95 % of control

NC(=O)NOCc1ccc([N+](=O)[O-])cc1
inactive: [8] 97 % of control | [9] 96 % of control | [10] 95 % of control

CC(=O)c1cc(-c2ccccc2)nc2c(Cl)cc(Cl)cc12
inactive: endpoint: mean survival time, dose: 100.0 mg/kg/injection, schedule: Q01DX001 (ip), vehicle: saline 102 % of control | endpoint: mean survival time, dose: 200.0 mg/kg/injection, schedule: Q01DX001 (ip), vehicle: saline 91 % of control | endpoint: mean survival time, dose: 400.0 mg/kg/injection, schedule: Q01DX001 (ip), vehicle: saline 103 % of control

Nc1nc(N)c(N=O)c(N)n1
inactive: [8] 98 % of control | [11] 103 % of control | [9] 97 % of control | [12] 97 % of control | [10] 100 % of control | endpoint: mean survival time, dose: 400.0 mg/kg/injection, schedule: Q04DX003 (ip), vehicle: saline 102 % of control

O=C(O)c1cc2c(Cl)cccc2[nH]1
inactive: endpoint: mean survival time, dose: 25.0 mg/kg/injection, schedule: Q01DX009 (ip), vehicle: saline with Tween-80 109 % of control | endpoint: mean survival time, dose: 50.0 mg/kg/injection, schedule: Q01DX009 (ip), vehicle: saline with Tween-80 98 % of control | [7] 94 % of control | [13] 106 % of control

CC(=O)OCC1OC(n2ncc3c(Sc4c([N+](=O)[O-])ncn4C)ncnc32)C(OC(C)=O)C1OC(C)=O (stereo unspecified)
inactive: endpoint: mean survival time, dose: 25.0 mg/kg/injection, schedule: Q01DX009 (ip), vehicle: other 100 % of control | endpoint: mean survival time, dose: 50.0 mg/kg/injection, schedule: Q01DX009 (ip), vehicle: other 102 % of control | endpoint: mean survival time, dose: 100.0 mg/kg/injection, schedule: Q01DX009 (ip), vehicle: other 100 % of control

CN(C)Cc1ncccc1O
inactive: endpoint: mean survival time, dose: 50.0 mg/kg/injection, schedule: Q01DX009 (ip), vehicle: suspension in saline 110 % of control | endpoint: mean survival time, dose: 100.0 mg/kg/injection, schedule: Q01DX009 (ip), vehicle: suspension in saline 108 % of control | endpoint: mean survival time, dose: 200.0 mg/kg/injection, schedule: Q01DX009 (ip), vehicle: suspension in saline 112 % of control

CCC1COCC1Cc1cncn1C (stereo unspecified)
inactive: endpoint: mean survival time, dose: 75.0 mg/kg/injection, schedule: Q01DX001 (ip), vehicle: saline 97 % of control | endpoint: mean survival time, dose: 150.0 mg/kg/injection, schedule: Q01DX001 (ip), vehicle: saline 101 % of control | endpoint: mean survival time, dose: 300.0 mg/kg/injection, schedule: Q01DX001 (ip), vehicle: saline 100 % of control

C=CCNC(N)=O
inactive: [11] 94 % of control | [12] 93 % of control

C=CC1C[N+]2(SS(=O)(=O)O)CCC1CC2C(O)c1ccnc2ccc(OC)cc12 (stereo unspecified)
inactive: endpoint: mean survival time, dose: 75.0 mg/kg/injection, schedule: Q04DX003 (ip), vehicle: saline 100 % of control | endpoint: mean survival time, dose: 150.0 mg/kg/injection, schedule: Q04DX003 (ip), vehicle: saline 95 % of control

CCCCCCCC/C=C\CCCCCCCC(=O)OCCCCCC
inactive: [1] 91 % of control | [2] 102 % of control | [3] 95 % of control

O=C1OC(c2ccccc2)(c2ccccc2)c2ccc3ccccc3c21
inactive: [13] 96 % of control | endpoint: mean survival time, dose: 200.0 mg/kg/injection, schedule: Q04DX003 (ip), vehicle: saline with Tween-80 93 % of control | endpoint: mean survival time, dose: 400.0 mg/kg/injection, schedule: Q04DX003 (ip), vehicle: saline with Tween-80 90 % of control

CC(C)P(=O)(CC(=O)O)c1ccccc1 (stereo unspecified)
inactive: endpoint: mean survival time, dose: 25.0 mg/kg/injection, schedule: Q04DX002 (ip), vehicle: saline with Tween-80 107 % of control | endpoint: mean survival time, dose: 50.0 mg/kg/injection, schedule: Q04DX002 (ip), vehicle: saline with Tween-80 96 % of control | [1] 100 % of control

OCCN=Cc1ccc(OCc2ccccc2)c(OCc2ccccc2)c1
inactive: endpoint: median survival time, dose: 50.0 mg/kg/injection, schedule: Q04DX002 (ip), vehicle: saline with Tween-80 100 % of control | endpoint: median survival time, dose: 100.0 mg/kg/injection, schedule: Q04DX002 (ip), vehicle: saline with Tween-80 111 % of control | endpoint: median survival time, dose: 200.0 mg/kg/injection, schedule: Q04DX002 (ip), vehicle: saline with Tween-80 88 % of control | endpoint: median survival time, dose: 400.0 mg/kg/injection, schedule: Q04DX002 (ip), vehicle: saline with Tween-80 100 % of control

NC(=S)N/N=C1/CCN2CCCc3cccc1c32
inactive: endpoint: mean survival time, dose: 5.0 mg/kg/injection, schedule: Q01DX001 (ip), vehicle: saline with Tween-80 98 % of control | endpoint: mean survival time, dose: 10.0 mg/kg/injection, schedule: Q01DX001 (ip), vehicle: saline with Tween-80 97 % of control | endpoint: mean survival time, dose: 20.0 mg/kg/injection, schedule: Q01DX001 (ip), vehicle: saline with Tween-80 98 % of control

CCOc1ccc(-c2nc(N)nc(N)n2)cc1
inactive: endpoint: mean survival time, dose: 12.5 mg/kg/injection, schedule: Q01DX009 (ip), vehicle: water 101 % of control | endpoint: mean survival time, dose: 25.0 mg/kg/injection, schedule: Q01DX009 (ip), vehicle: water 97 % of control | endpoint: mean survival time, dose: 50.0 mg/kg/injection, schedule: Q01DX009 (ip), vehicle: water 97 % of control | endpoint: mean survival time, dose: 100.0 mg/kg/injection, schedule: Q01DX009 (ip), vehicle: water 97 % of control | endpoint: mean survival time, dose: 200.0 mg/kg/injection, schedule: Q01DX009 (ip), vehicle: water 97 % of control

COC1NC(=O)NC(=O)C1=[N+]=[N-] (stereo unspecified)
inactive: endpoint: mean survival time, dose: 2.5 mg/kg/injection, schedule: Q01DX009 (ip), vehicle: saline with Tween-80 113 % of control
